Laboratory results from patent publication US11685726B2, “Pharmaceutical compositions of 6-(2-(2H-tetrazol-5-yl)ethyl)-6-fluorodecahydroisoquinoline-3-carboxylic acid and ester derivatives thereof” (Sea Pharmaceuticals LLC, priority 2020, dated 2023).

How the values were obtained:
[1] = Irwin neurological test battery in rats (SAD and MAD studies); assay type: in vivo, rat
Protocol: Rats were subjected to the Irwin Test Procedure of in vivo assessment of test compounds effects on neurological functions in rodents which was modified for rats. Rats were acclimated to the procedure room for at least 30 minutes. Rats were assessed for the features described below. Each rat was scored on a 0 to 3 scale with 0 representing the response in a normal animal and 3 representing a maximally impaired animal. Note that it is normal for an animal to score within the 0 to 1 range during Irwin testing. Animals were tested 55-60 min after test compound administration. Reference: Irwin, S. 20 Sep. 1968; “Comprehensive observational assessment: la. A symptomatic quantitative procedure for assessing the behavioral and physiologic state of the mouse” Psychopharmacologia 13(3): 222-257.
Single Ascending Dose (SAD) 1-day acute administration of test compound 2 by the oral PO route of administration to rats and samples collected at the timepoints described for subsequent extraction, dissolution and quantitative LCMS bioanalysis. […]
Multiple Ascending Dose (MAD) 5-day once daily administration of test compounds was done to rats and samples collected at the timepoints described for subsequent extraction, dissolution and quantitative LCMS bioanalysis. […]

[2] = tested on: 6 Hz psychomotor seizure model in mice; experiment: 6 Hz psychomotor seizure model in mice; assay type: in vivo, mouse; conditions: 0.5 hours, SPHA
Source text: Adult male Carworth Farms (CF-1) mice (25-35 g) or young male Sprague-Dawley (SD) rats (100-150 g) were obtained from Charles River Laboratories Inc (Wilmington Mass. USA). CF1 mice were typically used for the 6 Hz psychomotor seizure model (6 Hz model described in the section below) but could also be used for the Maximal electroshock seizure (MES) model if performed in mice (Maximal electroshock seizure model described in the section below). SD rats were typically used for MES model but could also be used for 6 Hz psychomotor model if performed in rats. Animals were allowed free access to food and water, except during testing periods. After delivery from supplier lab to the in vivo pharmacology testing lab, animals were allowed sufficient time to acclimate to housing conditions prior to testing. Animals were housed in plastic cages in rooms with controlled humidity, ventilation, and lighting (12 hours lights on and 12 hours darkness). The animals were housed and fed in a manner consistent with the recommendations in the “Guide for Care and Use of Laboratory Animals” (National Research Council), and in accordance with guidelines set by an Institutional Animal Care and Use Committee (IACUC). Animal experiments were conducted in a manner consistent with Animal Research: Reporting of In Vivo Experiments (ARRIVE) guidelines (UK) and were approved by an IACUC. Test compounds or respective vehicle (placebo) were administered using an optimal fluid volume-to-body fluid ratio. Solutions or suspensions of test compounds, reference compounds or vehicles were administered to mice or rats in a volume of 0.01 mL/g body weight (mice) or 0.004 mL/g body weight (rats) by subcutaneous (s.c.) injection, intraperitoneal (i.p.) injection or by oral gavage (p.o.) unless otherwise indicated. Reference drug Levetiracetam or vehicle was administered by intraperitoneal (i.p.) injection.
Mice are given a topical anesthetic on the cornea of each eye prior to placement of corneal electrodes. 6 Hz psychomotor seizures were induced in mice (usually 8 animals per group) using electrical stimulation via corneal electrodes (6 Hz, 0.2 millisecond rectangular pulse, 3 second duration at 22 mA using a Grass 48 stimulator instrument as described in Barton M E et al 2001. Epilepsy Res 47:217-227). Prior to placement of corneal electrodes for electrical stimulation 0.5% tetracaine in saline (Sigma) drops were applied to each eye. Seizures and behaviors that arise from the electrical stimulus in the 6 Hz model include a minor clonic seizure phase followed by stereotyped automatistic behaviors including stun, forelimb clonus, twitching of the vibrissae and Straub-tail. […] Animals not presenting any of these behaviors were considered “protected” from seizures. This serves as a screen for in vivo pharmacological activity of test articles or reference anti-epilepsy drugs and defines anti-seizure activity as shown in several publications [Barton M E et al. 2001. Epilepsy Res. 47:217-227; Barton M E et al. 2003 Epilepsy Res. 56:17-26; Brown W C et al. 1953. J Pharmacol Exp Ther 107:273-283. Metcalf C S et al. 2017a. Epilepsia 58:484-493.; Metcalf C S et al. 2017c. Epilepsia 58:239-246.
Unless otherwise indicated pretreatment times of mice or rats were typically 0.5 hours for respective vehicle, Compounds 1, 3, 4, 6 or other compounds administered by subcutaneous or intraperitoneal route (unless other times indicated). A pretreatment time of 1 hour was used for Compounds 3, 4, 6 or other compounds administered by oral route unless other times indicated. Test compounds or respective vehicles were tested in some cases at other pretreatment times as indicated. A median effective dose (ED50) and 95% confidence interval (CI) were calculated using a Prism (Graphpad software). […]

| Compound | Irwin test observations, SAD study ([1]; oral 10-200 mg/kg, day 1, 55-60 minutes post treatment) | Irwin test observations, MAD study ([1]; oral once daily 5 days, day 3 and day 5, 55-60 minutes post treatment) | 6 Hz Test Results (# mice protected from seizure/# mice tested) ([2]; 0.3 mg/kg s.c.) | 6 Hz Test Results (# mice protected from seizure/# mice tested) ([2]; 0.6 mg/kg s.c.) | 6 Hz Test Results (# mice protected from seizure/# mice tested) ([2]; 1 mg/kg s.c.) | 6 Hz Test Results (# mice protected from seizure/# mice tested) ([2]; 3 mg/kg s.c.) | 6 Hz Test Results (# mice protected from seizure/# mice tested) ([2]; 6 mg/kg s.c.) | 6 Hz Test Results (# mice protected from seizure/# mice tested) ([2]; 10 mg/kg s.c.) |
| --- | --- | --- | --- | --- | --- | --- | --- | --- |
| O=C(O)[C@@H]1C[C@H]2CC(F)(CCc3nnn[nH]3)CC[C@H]2CN1 (stereo in doubt) [Compound 2, (3S,4aS,6R,8aR)-6-fluoro-6-[2-(1H-1,2,3,4-tetrazol-5-yl)ethyl]-decahydroisoquinoline-3-carboxylic acid] | Normal or very little change from normal was observed for many of the doses | Normal or very little change from normal was observed for many of the doses |  |  |  |  |  |  |
| O=C(O)[C@@H]1C[C@H]2C[C@@](F)(CCc3nnn[nH]3)CC[C@H]2CN1 [Compound 1, (3S,4aS,6S,8aR)-6-fluoro-6-[2-(1H-1,2,3,4-tetrazol-5-yl)ethyl]-decahydroisoquinoline-3-carboxylic acid] |  |  | 1/8 | 3/8 | 3/8 | 5/8 | 7/8 | 8/8 |
